# Literature values, collected in US11813289B2, “Encapsulated antimicrobials and related methods of treatment” (ADVANTAGE SILVER DENTAL ARREST, LLC, priority 2018, dated 2023).
# Tested on: dentinal caries lesions
# Settings: lesions that had progressed into the dentin
substance,measurement,value
silver diamine fluoride [SDF],dentinal caries lesions arrested after treatment,two-thirds
